Measurements as given in US20150168379A1, “METHOD OF IDENTIFYING AND SCREENING DRUG CANDIDATE FOR PREVENTING AND/OR TREATING ISCHEMIC MYOCARDIAL DISEASE” (Macau University of Science and Technology, priority 2013, published 2015).
Entries after “also recorded” stand apart in the source; their conditions may differ.

How the values were obtained:
H9C2 cell line [1] = experiment: Survival rate of myocardial cells under hypoxia and reoxygenation (MTT); type: cell-based; settings: H9C2, pre-treated one hour before hypoxia, FIG. 2/3
Experimental: (§1) Myocardial cell lines, H9C2 and HL-1 were respectively seeded into culture dishes. KRB (Krebs-Ringer Bicarbonate buffer) solution replaced normal DMEM medium without the addition of serum. Cells were immediately placed in adjustable hypoxia box (Billups-Rothenberg) connected with gas flowmeter (rate of flow: 25L/min), in which the partial pressure of oxygen in the box was made to decrease from 20 kPa to 0 kPa within one minute. Hypoxia box was placed in a regular incubator for different incubation periods to create hypoxia conditions. […]
Seven components of protopanaxatriol-type ginsenosides, namely Re, Rf, Rg1, 20(S)-Rg2, 20(R)-Rg2, 20(S)-Rh1 and 20(R)-Rh1, were used to pre-treat myocardial cells. […] The effects of each component on survival, mitochondrial respiration, morphology, and mitochondrial function and movement of myocardial cells were analyzed, and the results thereof were used in candidate agent selection. […]
Optical density (OD) of cells was measured at wavelength of 570 nm by multiple-well plate spectrophotometer. Survival rate of the cells incubated under normal condition was set as 100%, and the survival rate of the blank control group was measured simultaneously as baseline for background subtraction. […]

H9C2 cell line [2] = experiment: Apoptosis rate of myocardial cells under hypoxia and reoxygenation by flow cytometry; type: cell-based; settings: 3-hour hypoxia and 3-hour reoxygenation
Experimental: as §1
(§2) Seven components of protopanaxatriol-type ginsenosides, namely Re, Rf, Rg1, 20(S)-Rg2, 20(R)-Rg2, 20(S)-Rh1 and 20(R)-Rh1, were used to pre-treat myocardial cells. […] The effects of each component on survival, mitochondrial respiration, morphology, and mitochondrial function and movement of myocardial cells were analyzed, and the results thereof were used in candidate agent selection.
(§3) Membrane potential of mitochondria, apoptosis rate, ROS release and cell cytotoxicity of myocardial cells were analyzed by flow cytometry. […] Fluorescence intensity of cells were analyzed by flow cytometry (each sample contains more than 10,000 cells). Cell fluorescence image was analyzed with fluorescence intensity of Rh123 as x-axis and fluorescence intensity of PI as y-axis. […]

H9C2 cell line [3] = experiment: Cell cytotoxicity of myocardial cells under hypoxia and reoxygenation by flow cytometry; type: cell-based; settings: pretreated, FIG. 5
Experimental: as §1, §2, §3

H9C2 cell line [4] = experiment: Mitochondrial membrane potential changes by flow cytometer (JC-1); type: cell-based
Experimental: Myocardial cell lines, H9C2 and HL-1 were respectively seeded into culture dishes. KRB (Krebs-Ringer Bicarbonate buffer) solution replaced normal DMEM medium without the addition of serum. Cells were immediately placed in adjustable hypoxia box (Billups-Rothenberg) connected with gas flowmeter (rate of flow: 25L/min), in which the partial pressure of oxygen in the box was made to decrease from 20 kPa to 0 kPa within one minute. Hypoxia box was placed in a regular incubator for different incubation periods to create hypoxia conditions. Hypoxia box was then opened and the medium was replaced with normal medium containing serum, followed by normal incubation at 37° C. for the time periods corresponding to those in the hypoxia conditions in order to create re-oxygenation conditions.
Seven components of protopanaxatriol-type ginsenosides, namely Re, Rf, Rg1, 20(S)-Rg2, 20(R)-Rg2, 20(S)-Rh1 and 20(R)-Rh1, were used to pre-treat myocardial cells. Each component was dissolved with normal medium and DMSO as co-solvent and used to pre-treat cells one hour before hypoxia. Subsequently, medium was replaced with hypoxia medium. The effects of each component on survival, mitochondrial respiration, morphology, and mitochondrial function and movement of myocardial cells were analyzed, and the results thereof were used in candidate agent selection.
Membrane potential of mitochondria, apoptosis rate, ROS release and cell cytotoxicity of myocardial cells were analyzed by flow cytometry. Upon pre-treatment of cells in different groups with Rg1, Sil (Sildenafil, the positive control drug), DOX (Doxorubicin, a cardiac toxic chemical which can induce H/R damage in myocardial cells) or FCCP (Carbonyl cyanide 4-(trifluoromethoxy) phenylhydrazone), the cells were then treated with hypoxia and reoxygenation conditions, in which the duration of each condition was 3 hours. 1 ml PBS buffer was added into culture dish with mixing. […] Fluorescence intensity of cells were analyzed by flow cytometry (each sample contains more than 10,000 cells). […]

H9C2 cell line [5] = experiment: ROS release (DCFDA, flow cytometer); type: cell-based
Experimental: Cells were harvested and a single cell suspension was produced by gently pipetting up and down suspension cells or by fully detaching adherent cells. Cells in culture media were stained with 20 μM DCFDA and incubated for 30 minutes at 37° C. After staining, cells were treated with Rg1, DOX or Sil. Cells were gently pipetted to produce single cell suspension. Cells were then analyzed by flow cytometer in which forward and side scatter gates were established to exclude debris and cellular aggregates from the analysis. DCF was excited by the 488 nm laser and detected at 535 nm (typically FL1). 10,000 cells were analyzed per experimental condition. The whole study was repeated 3 times.

[6] = tested on: bal-2, procaspase-3, procaspase-9, Akt, and Erk in myocardial cells; experiment: Expression levels of proteins of the mitochondrial-induced apoptosis pathway by western blotting; type: cell-based; settings: 100 μM
Mitofusin 2 (Mfn2) = target: T1, Mitofusin 2 (Mfn2) (Mus musculus, UniProt Q80U63); experiment: Binding with mitofusin-2 in myocardial cells under hypoxia and reoxygenation (western blotting); settings: FIG. 9
T1 construct: endogenous in cells; host or cells: myocardial cells under hypoxia and reoxygenation (method text: total protein from mouse myocardial infarction tissue)
T1 sequence (Q80U63 1-757): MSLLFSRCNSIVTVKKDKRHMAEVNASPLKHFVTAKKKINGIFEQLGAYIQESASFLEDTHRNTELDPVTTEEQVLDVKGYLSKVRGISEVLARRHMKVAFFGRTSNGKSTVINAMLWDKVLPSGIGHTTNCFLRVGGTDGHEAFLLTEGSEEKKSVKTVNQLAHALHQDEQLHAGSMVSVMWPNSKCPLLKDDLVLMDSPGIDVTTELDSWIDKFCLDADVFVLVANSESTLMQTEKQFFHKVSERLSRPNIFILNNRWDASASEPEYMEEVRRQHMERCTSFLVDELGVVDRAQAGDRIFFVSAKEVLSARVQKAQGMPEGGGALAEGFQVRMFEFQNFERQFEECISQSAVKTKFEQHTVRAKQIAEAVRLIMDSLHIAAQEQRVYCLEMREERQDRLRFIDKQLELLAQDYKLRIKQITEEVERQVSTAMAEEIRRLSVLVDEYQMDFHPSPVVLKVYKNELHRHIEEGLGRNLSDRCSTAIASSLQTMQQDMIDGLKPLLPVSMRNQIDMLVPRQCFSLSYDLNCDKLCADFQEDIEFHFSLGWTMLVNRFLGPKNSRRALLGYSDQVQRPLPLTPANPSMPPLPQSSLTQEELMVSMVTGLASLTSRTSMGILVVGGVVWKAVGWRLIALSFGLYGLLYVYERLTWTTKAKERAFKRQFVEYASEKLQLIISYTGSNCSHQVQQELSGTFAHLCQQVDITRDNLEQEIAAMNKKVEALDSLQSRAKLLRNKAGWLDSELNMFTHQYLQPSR

[7] = 100 μM, compared with the control group
[8] = 200 μM, compared with the control group

CC(C)=CCC[C@](C)(O[C@@H]1O[C@H](CO)[C@@H](O)[C@H](O)[C@H]1O)[C@H]1CC[C@]2(C)[C@@H]1[C@H](O)C[C@@H]1[C@@]3(C)CC[C@H](O)C(C)(C)[C@@H]3[C@@H](O[C@@H]3O[C@H](CO)[C@@H](O)[C@H](O)[C@H]3O)C[C@]12C [Rg1]
Survival rate of myocardial cells (H9C2 cell line [1]): capable of increasing survival rate
Apoptosis rate of myocardial cells (H9C2 cell line [2]; [7]): significantly inhibit apoptosis
Apoptosis rate of myocardial cells (H9C2 cell line [2]; 200 μM): can decrease apoptosis rate; also recorded: significantly inhibit apoptosis
Cytotoxicity of myocardial cells (H9C2 cell line [3]): can decrease the cytotoxicity
Mitochondrial membrane potential changes (H9C2 cell line [4]; [7]): significantly reduce the decrease of mitochondrial membrane potential changes
Mitochondrial membrane potential changes (H9C2 cell line [4]; [8]): significantly reduce the decrease of mitochondrial membrane potential changes
Mitochondrial membrane potential changes (H9C2 cell line [4]; JC-1, hypoxia and reoxygenation, concentration not given, FIG. 6): can inhibit the decrease of mitochondrial membrane potential changes
ROS release (H9C2 cell line [5]; [7]): significantly reduce the release of ROS
ROS release (H9C2 cell line [5]; [8]): significantly reduce the release of ROS
ROS release (H9C2 cell line [5]; concentration not given, FIG. 7): can decrease the release of ROS
Protection for myocardial cells induced by hypoxia and reoxygenation [6]: significant protection
Binding with Mitofusin 2 (Mfn2) in mitochondria (Mitofusin 2 (Mfn2)): binding with Mitofusin 2 (Mfn2)
